Assay results from patent US20210400967A1, “COMPOSITIONS COMPRISING PYRIDINE CARBOXYLATE HERBICIDES WITH GLYPHOSATE OR GLUFOSINATE” (Corteva Agriscience LLC, priority 2018, published 2021).

Key:
Format in all cases: in vivo
[1] = test system: Matricaria chamomilla (wild chamomile); experiment: Greenhouse postemergence herbicidal effect, wild chamomile (MATCH); details: 20-22 d
Description: (§1) Greenhouse Trial Methodology—Evaluation of Postemergence Herbicidal Effect
(§2) Seeds of the desired test plant species were planted in a 90:10% v/v (volume/volume) mixture of PRO-MIX® BX (Premier Tech Horticulture, Quakertown, Pa., USA) and PROFILE® GREENS GRADE™ (Profile Products LLC, Buffalo Grove, Ill., USA) planting mixture, which typically has a pH of 5.2 to 6.2 and an organic matter content of at least 50 percent, in plastic pots with a surface area of 103.2 square centimeters (cm^2). In some aspects, to ensure good germination and healthy plants, a fungicide treatment and/or other chemical or physical treatment was applied. The plants were grown for 7-36 days (d) in a greenhouse with an approximate 14-hour (h) photo-period which was maintained at about 23° C. during the day and 22° C. during the night. Nutrients and water were added on a regular basis and supplemental lighting was provided with overhead metal halide 1000-Watt lamps as necessary. The plants were employed for testing when they reached the second or third true leaf stage.
(§3) Emulsifiable concentrates of each of each pyridine carboxylate herbicide (Compound A or Compound B) were prepared at 100 grams acid equivalent per liter (g ae/L). The emulsifiable concentrates also included a safener, cloquintocet-mexyl, at 120 grams active ingredient per liter (g ai/L). An aliquot of each emulsifiable concentrate was placed in a 25 mL glass vial and diluted with an aqueous mixture of 1.25% (v/v) ACTIROB® B esterified rapeseed oil (Bayer Crop Science, Research Triangle Park, N.C., USA) or MSO® Concentrate with LECI-TECH® methylated soybean oil (Loveland Products, Loveland, Colo., USA) to obtain concentrated stock solutions at the highest application rate for each herbicide, based upon a 12 milliliter (mL) application volume at a rate of 187 liters per hectare (L/ha). The concentrated stock solutions were further diluted with an aqueous mixture of 1.25% v/v ACTIROB® B or MSO® Concentrate with LECI-TECH® to obtain stock solutions at reduced application rates for each herbicide. Spray solutions of the herbicide combinations (Compound A or Compound B plus glyphosate or glufosinate) were prepared by adding weighed amounts or aliquots of the glyphosate or glufosinate to the stock solutions of Compound A or Compound B to form 12-mL spray solutions in two-way combinations.
(§4) The spray solutions were applied to the plant material with an overhead Mandel track sprayer equipped with 8002E nozzles calibrated to deliver 187 L/ha over an application area of 0.503 square meters (m^2) at a spray height of 18 inches (43 centimeters (cm)) above the average plant canopy. Control plants were sprayed in the same manner with the solvent blank. All pyridine carboxylate herbicide (component a) application rates are given as “g ae/ha” and all glyphosate or glufosinate (component b) application rates are given as “g ai/ha.”
(§5) The treated plants and control plants were placed in a greenhouse as described above and watered by sub-irrigation to prevent wash-off of the test compounds. After 20-22 d, the condition of the test plants as compared with that of the control plants was determined visually and scored on a scale of 0 to 100 percent where 0 corresponds to no injury and 100 corresponds to complete kill.

[2] = test system: Cirsium arvense (Canadian thistle); experiment: Greenhouse postemergence herbicidal effect, Canadian thistle (CIRAR); details: 20-22 d
Description: as §1, §2, §3, §4, §5

[3] = test system: Chenopodium album L. (common lambsquarters); experiment: Greenhouse postemergence herbicidal effect, common lambsquarters (CHEAL); details: 20-22 d
Description: as §1, §2, §3, §4, §5

[4] = test system: Brassica napus (winter rape); experiment: Greenhouse postemergence herbicidal effect, winter rape (BRSNW); details: 20-22 d
Description: as §1, §2, §3, §4, §5

[5] = test system: Amaranthus retroflexus (pigweed); experiment: Greenhouse postemergence herbicidal effect, pigweed (AMARE); details: 20-22 d
Description: as §1, §2, §3, §4, §5

[6] = test system: Kochia scoparia (kochia); experiment: Greenhouse postemergence herbicidal effect, kochia (KCHSC); details: 20-22 d
Description: as §1, §2, §3, §4, §5

[7] = test system: Brassica napus (spring rape); experiment: Greenhouse postemergence herbicidal effect, spring rape (BRSNN); details: Example 3; Glyphosate 210 g ai/ha alone; 20-22 d
Description: as §1, §2, §3, §4, §5

[8] = test system: Setaria faberi (giant foxtail); experiment: Greenhouse postemergence herbicidal effect, giant foxtail (SETFA); details: Example 3; Glyphosate 210 g ai/ha alone; 20-22 d
Description: as §1, §2, §3, §4, §5

[9] = test system: Hordeum vulgare (spring barley); experiment: Greenhouse postemergence phytotoxicity on crop, spring barley (HORVS); details: 20-22 d
Description: as §1, §2, §3, §4, §5

[10] = test system: Triticum aestivum (spring wheat); experiment: Greenhouse postemergence phytotoxicity on crop, spring wheat (TRZAS); details: 20-22 d
Description: as §1, §2, §3, §4, §5

[11] = test system: Polygonum convolvulus (wild buckwheat); experiment: Greenhouse postemergence herbicidal effect, wild buckwheat (POLCO); details: 20-22 d
Description: as §1, §2, §3, §4, §5

[12] = test system: Sinapis arvensis (wild mustard); experiment: Greenhouse postemergence herbicidal effect, wild mustard (SINAR); details: 20-22 d
Description: as §1, §2, §3, §4, §5

[13] = test system: Salsola kali (Russian thistle); experiment: Greenhouse postemergence herbicidal effect, Russian thistle (SASKR); details: 20-22 d
Description: as §1, §2, §3, §4, §5

[14] = Example 1, Glyphosate 210 g ai/ha alone
[15] = Example 2, Glyphosate 420 g ai/ha alone
[16] = Example 3, Glyphosate 210 g ai/ha alone

SMILES: O=C(O)CNCP(=O)(O)O [Glyphosate, N-(phosphonomethyl)glycine]
- % visual injury [1, 14]: 60%
- % visual injury, Obs [1, 15]: 75%
- % visual injury [2, 14]: 38%
- % visual injury, Obs [2, 15]: 83%
- % visual injury, Obs [2, 16]: 40%
- % visual injury [3, 14]: 53%
- % visual injury, Obs [3, 15]: 75%
- % visual injury, Obs [3, 16]: 8%
- % visual injury [4, 14]: 68%
- % visual injury, Obs [4, 15]: 35%
- % visual injury [5, 14]: 100%
- % visual injury, Obs [5, 15]: 100%
- % visual injury [6, 14]: 0%
- % visual injury, Obs [6, 15]: 38%
- % visual injury, Obs [6, 16]: 3%
- % visual injury, Obs [7]: 0%
- % visual injury, Obs [8]: 30%
- % visual injury [9, 14]: 83%
- % visual injury, Obs [9, 15]: 80%
- % visual injury [10, 14]: 90%
- % visual injury, Obs [10, 15]: 90%
- % visual injury [11, 14]: 65%
- % visual injury, Obs [11, 15]: 38%
- % visual injury, Obs [11, 16]: 20%
- % visual injury [12, 14]: 50%
- % visual injury, Obs [12, 15]: 30%
- % visual injury [13, 14]: 10%
- % visual injury, Obs [13, 15]: 53%
